# According to ChEMBL document CHEMBL1914368, “Imidazo[1,5-a]quinoxalines as irreversible BTK inhibitors for the treatment of rheumatoid arthritis” (Bioorg Med Chem Lett, 2011):
# Experiments:
# [1] = biological target: Tyrosine-protein kinase Fgr (Homo sapiens) (UniProt P09769); test: Inhibition of FGR relative to control; conditions: concentration not given here
# [2] = biological target: Tyrosine-protein kinase BTK (Homo sapiens, UniProt Q06187); test: Inhibition of BTK relative to control
# [3] = Inhibition of anti-IgM-stimulated human B cell proliferation assessed as [3H]thymidine incorporation preincubated for 30 mins measured after 3 days; format: functional, cell-based; conditions: Homo sapiens, B-cell; read-out: IC50
# [4] = biological target: Focal adhesion kinase 1 (Homo sapiens) (UniProt Q05397); test: Inhibition of PTK2 relative to control; conditions: concentration not given here
# [5] = biological target: Mitogen-activated protein kinase 8 (Homo sapiens) (UniProt P45983); test: Inhibition of MAPK8 relative to control; conditions: concentration not given here
# [6] = biological target: Vascular endothelial growth factor receptor 2 (Homo sapiens) (UniProt P35968); test: Inhibition of KDR relative to control; conditions: concentration not given here
# [7] = biological target: Cytoplasmic tyrosine-protein kinase BMX (Homo sapiens) (UniProt P51813); test: Inhibition of BMX relative to control; conditions: concentration not given here
# [8] = biological target: Tyrosine-protein kinase SYK (Homo sapiens) (UniProt P43405); test: Inhibition of SYK relative to control; conditions: concentration not given here
# [9] = biological target: RAC-alpha serine/threonine-protein kinase (Homo sapiens) (UniProt P31749); test: Inhibition of AKT1 relative to control; conditions: concentration not given here
# [10] = biological target: Mitogen-activated protein kinase 3 (Homo sapiens) (UniProt P27361); test: Inhibition of MAPK3 relative to control; conditions: concentration not given here
# [11] = biological target: Serine/threonine-protein kinase PLK1 (Homo sapiens) (UniProt P53350); test: Inhibition of PLK1 relative to control; conditions: concentration not given here
# [12] = biological target: Protein-tyrosine kinase 6 (Homo sapiens) (UniProt Q13882); test: Inhibition of BRK relative to control; conditions: concentration not given here
# [13] = Half life in mouse at 10 mg/kg, po; format: ADME, organism-based; set-up: dose 10 mg/kg, route oral; conditions: in vivo
# Sequence of Focal adhesion kinase 1 (Homo sapiens) (Q05397 2-1052 limits assumed): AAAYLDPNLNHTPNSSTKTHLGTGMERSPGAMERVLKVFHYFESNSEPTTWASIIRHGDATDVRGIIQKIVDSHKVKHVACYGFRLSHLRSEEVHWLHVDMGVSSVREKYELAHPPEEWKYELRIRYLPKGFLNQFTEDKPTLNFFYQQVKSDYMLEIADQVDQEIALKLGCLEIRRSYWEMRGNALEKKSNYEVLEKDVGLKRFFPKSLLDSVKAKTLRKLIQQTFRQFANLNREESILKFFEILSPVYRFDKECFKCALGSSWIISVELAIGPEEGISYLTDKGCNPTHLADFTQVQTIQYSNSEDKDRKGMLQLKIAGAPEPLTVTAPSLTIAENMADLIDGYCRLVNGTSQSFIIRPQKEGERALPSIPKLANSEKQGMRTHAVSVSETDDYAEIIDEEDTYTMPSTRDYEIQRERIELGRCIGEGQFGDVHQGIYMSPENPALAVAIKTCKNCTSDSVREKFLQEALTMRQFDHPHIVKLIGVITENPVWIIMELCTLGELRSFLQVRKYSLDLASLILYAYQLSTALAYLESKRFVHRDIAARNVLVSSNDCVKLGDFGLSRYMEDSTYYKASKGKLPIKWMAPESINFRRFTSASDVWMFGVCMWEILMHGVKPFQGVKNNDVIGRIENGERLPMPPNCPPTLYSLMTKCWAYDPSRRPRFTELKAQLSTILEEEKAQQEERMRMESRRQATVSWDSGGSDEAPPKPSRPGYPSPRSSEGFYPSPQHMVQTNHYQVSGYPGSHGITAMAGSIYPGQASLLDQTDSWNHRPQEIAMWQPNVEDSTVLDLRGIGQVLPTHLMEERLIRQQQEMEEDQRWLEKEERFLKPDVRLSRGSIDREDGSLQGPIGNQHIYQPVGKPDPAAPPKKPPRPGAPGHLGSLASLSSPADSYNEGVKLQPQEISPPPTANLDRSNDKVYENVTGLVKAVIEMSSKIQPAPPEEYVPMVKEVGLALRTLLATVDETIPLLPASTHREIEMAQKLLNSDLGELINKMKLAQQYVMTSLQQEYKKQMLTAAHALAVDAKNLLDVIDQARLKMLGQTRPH
# Sequence of Tyrosine-protein kinase BTK (Q06187 whole entry): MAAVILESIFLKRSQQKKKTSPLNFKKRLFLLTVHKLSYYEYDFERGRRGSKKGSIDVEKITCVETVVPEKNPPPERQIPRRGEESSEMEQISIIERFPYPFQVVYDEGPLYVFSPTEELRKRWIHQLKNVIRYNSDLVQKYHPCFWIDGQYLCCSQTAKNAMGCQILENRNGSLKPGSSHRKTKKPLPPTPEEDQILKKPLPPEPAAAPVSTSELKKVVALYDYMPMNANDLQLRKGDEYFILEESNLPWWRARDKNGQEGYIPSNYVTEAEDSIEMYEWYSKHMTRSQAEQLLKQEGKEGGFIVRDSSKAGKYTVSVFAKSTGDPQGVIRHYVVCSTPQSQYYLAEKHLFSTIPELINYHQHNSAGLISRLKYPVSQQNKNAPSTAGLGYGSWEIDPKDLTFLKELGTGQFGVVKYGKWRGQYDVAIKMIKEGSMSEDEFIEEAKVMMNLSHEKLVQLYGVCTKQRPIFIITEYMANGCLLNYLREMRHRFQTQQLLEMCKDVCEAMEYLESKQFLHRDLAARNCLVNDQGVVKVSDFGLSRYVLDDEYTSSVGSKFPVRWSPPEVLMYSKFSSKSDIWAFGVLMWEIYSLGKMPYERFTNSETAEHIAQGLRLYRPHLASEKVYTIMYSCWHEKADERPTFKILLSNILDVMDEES
# Sequence of Cytoplasmic tyrosine-protein kinase BMX (Homo sapiens) (P51813 whole entry): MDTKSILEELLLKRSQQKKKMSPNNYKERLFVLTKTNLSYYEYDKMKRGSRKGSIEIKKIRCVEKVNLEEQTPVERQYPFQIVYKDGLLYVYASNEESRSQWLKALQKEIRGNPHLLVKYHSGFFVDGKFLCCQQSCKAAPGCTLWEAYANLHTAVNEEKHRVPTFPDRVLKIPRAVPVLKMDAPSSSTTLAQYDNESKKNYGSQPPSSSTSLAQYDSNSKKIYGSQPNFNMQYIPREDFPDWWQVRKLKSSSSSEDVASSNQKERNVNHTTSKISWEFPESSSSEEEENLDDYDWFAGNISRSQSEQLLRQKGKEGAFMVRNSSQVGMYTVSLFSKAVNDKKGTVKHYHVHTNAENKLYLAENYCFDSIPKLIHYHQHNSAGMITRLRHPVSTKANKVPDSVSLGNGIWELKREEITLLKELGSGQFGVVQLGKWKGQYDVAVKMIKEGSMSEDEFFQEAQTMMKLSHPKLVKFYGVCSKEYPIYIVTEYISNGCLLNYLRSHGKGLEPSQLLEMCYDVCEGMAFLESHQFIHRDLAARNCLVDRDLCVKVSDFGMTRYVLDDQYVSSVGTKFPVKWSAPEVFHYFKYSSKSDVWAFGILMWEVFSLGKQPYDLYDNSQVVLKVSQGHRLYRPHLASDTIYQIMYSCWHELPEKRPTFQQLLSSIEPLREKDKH
# Sequence of Mitogen-activated protein kinase 3 (Homo sapiens) (P27361 whole entry): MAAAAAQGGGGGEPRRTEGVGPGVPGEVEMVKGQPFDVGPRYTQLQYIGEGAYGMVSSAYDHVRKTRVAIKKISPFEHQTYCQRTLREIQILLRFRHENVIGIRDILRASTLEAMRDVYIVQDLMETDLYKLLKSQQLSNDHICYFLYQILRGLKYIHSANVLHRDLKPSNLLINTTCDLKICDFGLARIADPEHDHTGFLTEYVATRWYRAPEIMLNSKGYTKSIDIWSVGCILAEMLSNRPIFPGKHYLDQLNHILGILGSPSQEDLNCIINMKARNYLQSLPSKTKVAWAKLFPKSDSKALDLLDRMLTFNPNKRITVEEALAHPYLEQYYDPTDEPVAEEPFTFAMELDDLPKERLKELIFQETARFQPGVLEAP
# Sequence of RAC-alpha serine/threonine-protein kinase (Homo sapiens) (P31749 whole entry): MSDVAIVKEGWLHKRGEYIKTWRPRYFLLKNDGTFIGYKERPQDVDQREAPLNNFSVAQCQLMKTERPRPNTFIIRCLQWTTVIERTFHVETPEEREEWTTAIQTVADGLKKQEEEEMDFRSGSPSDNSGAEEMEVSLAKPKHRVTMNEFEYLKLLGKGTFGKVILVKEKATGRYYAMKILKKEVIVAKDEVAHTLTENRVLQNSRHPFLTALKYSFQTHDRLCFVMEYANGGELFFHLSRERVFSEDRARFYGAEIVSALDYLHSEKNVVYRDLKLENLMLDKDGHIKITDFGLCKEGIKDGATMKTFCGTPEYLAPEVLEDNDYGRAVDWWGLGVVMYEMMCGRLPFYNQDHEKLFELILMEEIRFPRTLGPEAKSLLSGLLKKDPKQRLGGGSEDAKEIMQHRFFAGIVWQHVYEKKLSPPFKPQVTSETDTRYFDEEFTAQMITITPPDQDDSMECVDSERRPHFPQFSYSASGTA
# Sequence of Mitogen-activated protein kinase 8 (Homo sapiens) (P45983 whole entry): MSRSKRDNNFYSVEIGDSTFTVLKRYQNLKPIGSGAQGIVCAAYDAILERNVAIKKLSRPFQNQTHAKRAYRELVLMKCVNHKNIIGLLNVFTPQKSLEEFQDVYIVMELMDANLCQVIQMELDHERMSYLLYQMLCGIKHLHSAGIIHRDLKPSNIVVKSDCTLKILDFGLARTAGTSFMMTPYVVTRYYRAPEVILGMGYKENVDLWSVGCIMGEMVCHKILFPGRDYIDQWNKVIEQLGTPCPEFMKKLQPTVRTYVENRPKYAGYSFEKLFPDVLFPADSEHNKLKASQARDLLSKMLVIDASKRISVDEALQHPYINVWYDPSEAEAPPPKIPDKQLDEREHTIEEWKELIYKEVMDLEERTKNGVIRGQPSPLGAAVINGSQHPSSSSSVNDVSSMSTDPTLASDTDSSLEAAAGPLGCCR
# Sequence of Serine/threonine-protein kinase PLK1 (Homo sapiens) (P53350 whole entry): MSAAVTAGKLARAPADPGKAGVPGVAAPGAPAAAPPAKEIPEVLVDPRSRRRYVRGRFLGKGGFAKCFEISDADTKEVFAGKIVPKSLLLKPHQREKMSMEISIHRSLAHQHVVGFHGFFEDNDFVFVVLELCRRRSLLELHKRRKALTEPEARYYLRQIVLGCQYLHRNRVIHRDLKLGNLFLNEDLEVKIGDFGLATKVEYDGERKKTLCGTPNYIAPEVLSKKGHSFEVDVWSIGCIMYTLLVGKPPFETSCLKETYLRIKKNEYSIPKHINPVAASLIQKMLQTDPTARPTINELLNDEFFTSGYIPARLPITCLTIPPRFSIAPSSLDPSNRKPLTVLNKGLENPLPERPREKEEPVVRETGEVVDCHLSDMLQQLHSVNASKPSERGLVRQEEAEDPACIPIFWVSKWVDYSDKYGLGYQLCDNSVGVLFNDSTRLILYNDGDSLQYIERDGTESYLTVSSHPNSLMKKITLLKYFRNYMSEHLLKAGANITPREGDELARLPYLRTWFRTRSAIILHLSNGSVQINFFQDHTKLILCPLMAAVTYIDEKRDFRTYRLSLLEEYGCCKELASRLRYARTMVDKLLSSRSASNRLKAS
# Sequence of Tyrosine-protein kinase Fgr (Homo sapiens) (P09769 2-529 limits assumed): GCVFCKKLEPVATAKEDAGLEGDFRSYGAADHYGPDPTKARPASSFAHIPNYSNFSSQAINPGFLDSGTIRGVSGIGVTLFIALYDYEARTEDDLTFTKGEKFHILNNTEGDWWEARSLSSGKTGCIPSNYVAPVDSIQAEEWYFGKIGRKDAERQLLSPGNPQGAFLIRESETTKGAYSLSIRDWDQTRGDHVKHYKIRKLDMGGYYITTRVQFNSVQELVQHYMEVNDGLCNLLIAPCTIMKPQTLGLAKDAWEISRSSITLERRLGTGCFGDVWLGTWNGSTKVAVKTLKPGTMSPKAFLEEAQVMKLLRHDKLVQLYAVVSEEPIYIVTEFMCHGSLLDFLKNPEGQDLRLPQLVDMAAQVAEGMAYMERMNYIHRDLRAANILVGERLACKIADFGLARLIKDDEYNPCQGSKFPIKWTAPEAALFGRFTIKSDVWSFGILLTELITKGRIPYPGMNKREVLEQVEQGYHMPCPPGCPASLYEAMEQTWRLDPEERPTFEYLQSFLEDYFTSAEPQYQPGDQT
compound,measurement,setting,value
Cc1ccccc1Nc1nc2cc(F)c(N(C)C(=O)/C=C/CN(C)C)cc2n2cncc12,inhibition,[1],15%
same,IC50,[2],3.31 nM
same,IC50,[3],3.41 nM
same,inhibition,[4],-2%
same,inhibition,[5],-3%
same,inhibition,[6],7%
same,inhibition,[7],100%
same,inhibition,[8],0%
same,inhibition,[9],4%
same,inhibition,[10],1%
same,inhibition,[11],4%
same,inhibition,[12],-4%
same,half-life,[13],120 min
